Calls of active or inactive are those of the source. No cut-off for these calls is given here.
Assays:
[1] = Cytotoxicity against BALB/c mouse splenocytes assessed as highest nontoxic concentration after 24 hrs by [3H]-thymidine incorporation assay; assay type: cell-based, Splenocyte; conditions: read-out: Activity
SF-295 = test: Antiproliferative activity against human SF295 cells at 25 ug/ml after 48 hrs by MTT assay; assay type: functional; conditions: SF-295, 48 h
[2] = Cytotoxicity against BALB/c mouse splenocytes assessed as cell viability after 24 hrs by [3H]-thymidine incorporation assay; assay type: cell-based, Splenocyte; set-up: concentration or dose not given beside the values; conditions: read-out: Activity
Mus musculus [3] = test: Antiinflammatory activity in carrageenan-induced air pouch mouse model assessed as inhibition of leukocyte migration from blood circulation into air pouches at 100 mg/kg, po administered 1 hr before carrageenan challenge measured after 6 hrs relative to control; assay type: functional
HCT-8 = test: Antiproliferative activity against human HCT8 cells at 25 ug/ml after 48 hrs by MTT assay; assay type: functional; conditions: HCT-8, 48 h
Splenocyte [4] = test: Immunomodulatory activity in BALB/c mouse splenocytes assessed as inhibition of LPS-induced nitric oxide production at 25 ug/ml after 72 hrs by Griess method relative to control; assay type: functional
MDA-MB-435 = test: Antiproliferative activity against human MDA-MB-435 cells at 25 ug/ml after 48 hrs by MTT assay; assay type: functional; conditions: MDA-MB-435, 48 h
Splenocyte [5] = test: Immunomodulatory activity in BALB/c mouse splenocytes assessed as inhibition of LPS-induced nitric oxide production at 50 ug/ml after 72 hrs by Griess method relative to control; assay type: functional
Mus musculus [6] = test: Immunomodulatory activity in carrageenan-induced air pouch mouse model assessed as reduction of nitric oxide production in air pouch at 10 mg/kg, po by Griess method; assay type: functional, organism-based; set-up: dose 10 mg/kg
[7] = tested on: Peritoneal macrophage cell; test: Immunomodulatory activity mouse peritoneal macrophages assessed as inhibition of LPS-induced TNFalpha production at 50 uM after 24 hrs by ELISA; assay type: functional, cell-based
[8] = tested on: Peritoneal macrophage cell; test: Immunomodulatory activity mouse peritoneal macrophages assessed as inhibition of LPS-induced IL-1beta production at 50 uM after 24 hrs by ELISA; assay type: functional, cell-based
Mus musculus [9] = test: Antiinflammatory activity in carrageenan-induced air pouch mouse model assessed as inhibition of leukocyte migration from blood circulation into air pouches at 10 mg/kg, po administered 1 hr before carrageenan challenge measured after 6 hrs relative to control; assay type: functional

SMILES	MNTC at 24 h [1] [µg/mL]	inhibition at 25 µg/mL (SF-295) [%]	viability at 24 h [2] [%]	inhibition in vivo at 100 mg/kg (Mus musculus [3]) [%]	inhibition at 25 µg/mL (HCT-8) [%]	Activity (Splenocyte [4]) [µg/mL]	inhibition at 25 µg/mL (MDA-MB-435) [%]	Activity (Splenocyte [5]) [µg/mL]	Activity (Mus musculus [6])	inhibition [7]	inhibition [8]	inhibition in vivo at 10 mg/kg (Mus musculus [9]) [%]
O=C(O)CCN1C(=O)c2ccccc2C1=O	50	12.6	22.2	54.2	18.9	3.6	-3.71	4.4				
O=C(O)[C@H](Cc1c[nH]c2ccccc12)N1C(=O)c2ccccc2C1=O	50	24.5	27.6	43.8	10.4	1.3	13.8	2.1	Active	Active	Active	
CC(C)[C@@H](C(=O)O)N1C(=O)c2ccccc2C1=O	25	2.74	24.7	57.8	4.28	6.4	7.82	2.7				
O=C(O)[C@H](Cc1ccccc1)N1C(=O)c2ccccc2C1=O	25	13.5	21.5	64.2	-7.23	2.3	11.7	0.7			Active	
COc1cccc2c1C(=O)c1c(O)c3c(c(O)c1C2=O)C[C@@](O)(C(=O)CO)C[C@@H]3O[C@H]1C[C@H](N)[C@H](O)[C@H](C)O1 [DOXORUBICIN]		81.4			97.1		94.6					
CC[C@H](C)[C@@H](C(=O)O)N1C(=O)c2ccccc2C1=O	12.5	20	26.1	67.5	15	3.1	14.9	2.3				64.7
O=C(O)CC[C@@H](C(=O)O)N1C(=O)c2ccccc2C1=O	50	14.4	8.75	61.7	6.52	2.9	12.9	3.4				
C[C@@H](C(=O)O)N1C(=O)c2ccccc2C1=O	> 100	12.2		38.4	6.11	2.1	5.01	1.5				
O=C1CCC(N2C(=O)c3ccccc3C2=O)C(=O)N1 (centres undefined) [THALIDOMIDE]	> 100			72.1		3.6		3.6	Active			76.3
O=C(O)CN1C(=O)c2ccccc2C1=O	50	3.98	25.6	47.7	-0.61	4.2	-4.72	3.6		Active	Active	

From ChEMBL document CHEMBL2429842, “Phthaloyl amino acids as anti-inflammatory and immunomodulatory prototypes” (Med Chem Res, 2013)
